10 compounds from US6624154B1, “Compositions and methods for treatment of hyperproliferative diseases” (Bristol-Myers Squibb Company, priority 1999, dated 2003) can be followed below.

Structures are written as SMILES. A value given as a limit tells only on which side of the number the result lay.

The subject of test [1] is NB4 cells. As to the kind of experiment: NB4 cell maturation (morphology, NBT reduction, CD11c integrin expression). The conditions noted are these: for Induction of NB4 cell maturation/differentiation, agent alone: ATRA 1 μM, other agonists 0.2 μM, 8CPT-cAMP 100 μM, 72 h (NBT, morphology), 48 h (CD11c); for NB4 cell maturation in presence of 8CPT-cAMP: co-treatment with PKA agonist 8CPT-cAMP 100 μM. The test is classed as cell-based, human.
Procedure: Morphological features of NB4 cells in response to treatments (after 72 h). […] Nitroblue tetrazolium enzymatic reduction in retinoid-treated NB4 cells (after 72 h; percent of positive cells).
Cells and cultures. […] Essentially, cultures were established with log phase growing cells at concentration (10^5 ocell per ml) allowing exponential growth of untreated control cultures over 3 days without medium replenishment. […] Cultures were light-protected.
Morphological and functional cell maturation analysis. Cell morphology was analyzed after May-Grünwald staining. […] Morphology analysis and NBT reaction were performed after 72 h of treatment. At least 300 cells were analyzed for each treated culture.
Flow cytometry analysis of CD11c cell surface integrin. […] Briefly, after incubation (48 h), cells were washed in PBS and labeled with an anti-human CD11c FITC mouse monoclonal antibody (Becton-Dickinson). Cells were then washed twice in PBS and fixed in 1% paraformaldehyde/PBS solution. Cells were analyzed using a COULTER flow-cytometer.

The next test has as its target T1, RARα-RXRα heterodimer (Homo sapiens, UniProt P10276+P19793).
T1 sequence (P10276 1-462): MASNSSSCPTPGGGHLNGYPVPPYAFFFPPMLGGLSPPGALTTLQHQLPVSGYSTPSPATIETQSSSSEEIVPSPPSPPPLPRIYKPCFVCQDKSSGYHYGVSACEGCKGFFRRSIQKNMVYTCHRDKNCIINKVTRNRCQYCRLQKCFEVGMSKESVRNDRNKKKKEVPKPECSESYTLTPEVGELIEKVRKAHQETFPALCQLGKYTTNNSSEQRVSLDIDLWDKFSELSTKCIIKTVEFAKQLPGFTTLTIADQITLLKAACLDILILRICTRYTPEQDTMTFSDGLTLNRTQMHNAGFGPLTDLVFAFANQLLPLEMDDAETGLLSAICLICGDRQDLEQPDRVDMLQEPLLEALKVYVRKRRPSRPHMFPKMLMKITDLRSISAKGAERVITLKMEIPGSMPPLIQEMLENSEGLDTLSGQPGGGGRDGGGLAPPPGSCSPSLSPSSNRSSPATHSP
T1 sequence (P19793 1-462): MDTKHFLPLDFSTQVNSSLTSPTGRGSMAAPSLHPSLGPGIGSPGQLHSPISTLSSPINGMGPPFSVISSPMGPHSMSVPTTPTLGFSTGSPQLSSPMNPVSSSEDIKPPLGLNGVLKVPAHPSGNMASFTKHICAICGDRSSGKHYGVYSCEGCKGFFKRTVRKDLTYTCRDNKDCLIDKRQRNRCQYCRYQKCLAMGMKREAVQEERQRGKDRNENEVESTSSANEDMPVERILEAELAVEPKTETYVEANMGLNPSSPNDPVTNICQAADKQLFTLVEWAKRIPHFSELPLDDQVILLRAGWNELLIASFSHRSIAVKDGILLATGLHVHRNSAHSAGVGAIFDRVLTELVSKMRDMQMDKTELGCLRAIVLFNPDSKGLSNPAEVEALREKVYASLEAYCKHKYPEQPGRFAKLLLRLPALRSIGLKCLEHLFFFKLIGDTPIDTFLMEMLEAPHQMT
As to the kind of experiment: Transient transfection, RARα-RXRα heterodimer activity on DR5-tk-CAT reporter.

A further test relates to T47D. In words: Lipid accumulation (Nile Red staining) in T47D breast cancer cells. In kind it is cell-based, human. The conditions noted are these: 7 days; for Increase of differentiation by addition of CPT-cAMP over RXR ligand alone: 1 μM RXR ligand plus 100 μM 8CPT-cAMP; for EC50: RXR compound alone, Nile Red.
Test [2] concerns NB4 cells. In words: Cytokine expression in NB4 cells by RNAse protection assay. The test is classed as cell-based, human. The conditions noted are these: for G-CSF expression: agent alone, 0, 24, 48 h.
Procedure: (§1) Modulation of cytokine expression in NB4 cells was assessed by RNAse protection assays. […] For comparison the effect of vitamin D3 (“D3”) was studied also. […] The intact probes run on the same gel are shown on the left (L32 and GAPDH are the invariant internal controls used for calibration) and the positions of the protected fragments are indicated. […] Only the positions of the protected fragments are shown.
(§2) RPA analysis. Total RNA was extracted with the Trizol reagent (Gibco BRL). The ribonuclease protection assay was performed according to the supplier's instructions (Pharmingen, San Diego, Calif.). […] RNA (4 μg) and 6×10^5 cpm of labeled probes were used for hybridization. After RNAse treatments, the protected probes were resolved on a 5% urea-polyacrylamide-bis-acrylamide gel.
The next test relates to NB4-R2 cells. As to the kind of experiment: Cytokine expression in NB4-R2 cells by RNAse protection assay. In kind it is cell-based, human.

Procedure for NB4-R2 cells: as §1, §2
Procedure for T47D: Staining Solution: Stock Solution (1 mg Nile red and 1 ml acetone were mixed thoroughly and stored, chilled and protected from light).
Staining. For Fluorescence Microscope, a drop of dye-glycerol solution was added to a slide and covered with a glass coverslip. After 5 minutes, the slide was viewed by fluorescence microscope, Excitation 450-500 nm, Emission>528 nm. For Flow Cytofluorometry, the medium was aspirated off from cells and washed with PBS two times (serum in the medium drained the dye out of the cells). Then the cells were trypsinized and washed with PBS to get rid of trypsin. The cells were spun down and resuspended in 1 ml PBS (1-2×10^6/ml). The stock dye was added directly to the cells suspension in PBS with 1:100 dilution, and incubated at room temperature for a minimal of 5 minutes, and the samples were analyzed immediately. For Fluorescence Spectra, the medium was removed from 96-well plates and the cells were washed once with PBS. […] Diluted dye in PBS (1:100 from stock) was added to the cells, incubated for 5 minutes, and the plate was read at Excitation 488nm with a 2-nm slit width, emission at 540 nm with a 20-nm slit width.
Cells. Breast cancer cell line T47D was obtained from American Type Culture Collection, Manassas, Va.

Regarding `CC1(C)C(=O)C(C)(C)c2cc(C(=O)Nc3ccc(C(=O)O)cc3)ccc21` [Compound I, 4-[[(2,3-Dihydro-1,1,3,3-tetramethyl-2-oxo-1H-inden-5-yl)carbonyl]amino]benzoic acid], the “Induction of NB4 cell maturation/differentiation, agent alone” value in the test with NB4 cells [1] was “induce maturation”. In the test with NB4 cells [1] (agent alone), the “Growth of NB4 cells” value is “growth inhibited”.

As for `C=C(c1ccc(C(=O)O)cc1)c1cc2c(cc1C)C(C)(C)CC=C2C(C)C` [Compound V, 4-[1-[5,6-Dihydro-3,5,5-trimethyl-8-(1-methylethyl)-2-naphthalenyl]ethenyl]benzoic acid], the “Activity with RAR-RXR heterodimers on a DR5-based reporter” value on RARα-RXRα heterodimer (agent alone) is “nearly inactive”. In addition, at RARα-RXRα heterodimer (with ATRA), the “Effect on ATRA-induced transactivation of DR5-based reporter” value is recorded as “synergized with”. Further, in the test with NB4 cells [1], the “Induction of NB4 cell maturation/differentiation, agent alone” value is “did not exert any differentiative effect” and the “NB4 cell maturation in presence of 8CPT-cAMP” value is on record as “induced maturation with a potency similar to 9-cis RA”.

Take `CC1(C)CCC(C)(C)c2cc(C3(c4ccc(C(=O)O)cc4)OCCO3)ccc21` [SR11237]: in the test with T47D, the “Increase of differentiation by addition of CPT-cAMP over RXR ligand alone” value was 20% and the concentration for a half-maximal effect (EC50) was 110 nM. Further, in the test with NB4 cells [2] (SR11237 with 8CPT-cAMP), the “Factor of synergy, G-CSF expression” value was above 50 fold. The G-CSF expression entry with NB4 cells [2] was “does not affect G-CSF expression”. The “SCF, IL8 and MCPI expression” value with NB4 cells [2] (agent on its own) was “induced”. In addition, the “Transactivation of DR5-based reporter by coexpressed RAR and RXR in presence of the PKA agonist” value at RARα-RXRα heterodimer (with 8CPT-cAMP) was “did not observe any SR11237-induced transactivation”. Besides, in the test with NB4 cells [1], the “Induction of NB4 cell maturation/differentiation, agent alone” value is “completely inactive” and the “NB4 cell maturation in presence of 8CPT-cAMP” value is given as “induced full maturation”.

On to `CC1(C)CC=C(c2cnc3ccccc3c2)c2cc(C(=O)Nc3ccc(C(=O)O)cc3)ccc21` [Compound II], for which, in the test on NB4 cells [1] (NB4 cells, antagonist 2 μM), the “Effect on Compound I-induced differentiation” value was “abrogated” and the “Effect on maturation induced by 9-cis RA” value is “decreased dramatically”. Besides, the “Inhibition of NB4 maturation induced by SR11237 plus 8CPT-cAMP” value in the test with NB4 cells [1] (antagonist 2 μM) is “not inhibited”.

With `C=C1CC[C@H](O)C/C1=C/C=C1\CCC[C@]2(C)[C@@H]([C@H](C)CCCC(C)C)CC[C@@H]12` [vitamin D3], in the test with NB4 cells [1], the “Induction of NB4 cell maturation/differentiation, agent alone” value is “inactive on its own” and the “NB4 cell maturation in presence of 8CPT-cAMP” value is on record as “moderate granulocytic maturation”. In addition, the “Granulocytic maturation relative to the effect of SR11237 in presence of the PKA agonist” value with NB4 cells [1] (uM concentration, with 8CPT-cAMP) is on record as “less than 20%”.

`CC1(C)CC=C(c2ccc(-c3ccccc3)cc2)c2cc(/C=C/c3ccc(C(=O)O)cc3)ccc21` [Compound VI]: the “Effect on Compound I-induced differentiation” value in the test on NB4 cells [1] (NB4 cells, antagonist 2 μM) is on record as “abrogated”. For the same compound, in the test on NB4 cells [1] (antagonist 2 μM), the “Inhibition of NB4 maturation induced by SR11237 plus 8CPT-cAMP” value is “not inhibited”.

On to `Nc1ncnc2c1nc(Sc1ccc(Cl)cc1)n2[C@@H]1O[C@@H]2COP(=O)([O-])O[C@H]2[C@H]1O.[Na+]` [Compound 8CPT-cAMP, 8-(4-Chlorophenylthio)-adenosine-3′,5′-cyclic monophosphate, sodium salt], for which, in the test with T47D (100 μM), the “Lipid accumulation/differentiation, CPT-cAMP alone” value is “No effect”. Further, the “Induction of NB4 cell maturation/differentiation, agent alone” value in the test with NB4 cells [1] was “did not exhibit any differentiating activity”.

As for `C=C(c1ccc(C(=O)O)cc1)c1cc2c(cc1C)C(C)(C)CCC2(C)C` [bexarotene], the “Increase of differentiation by addition of CPT-cAMP over RXR ligand alone” value in the test with T47D was found to be 20%. The compound also displayed an EC50 with T47D (Homo sapiens, T47D, 168 h) of 62 nM.

For the compound `CN1c2ccc([N+](=O)[O-])cc2N=C(c2ccc(C(=O)O)cc2)c2cc3c(cc21)C(C)(C)CCC3(C)C` [HX531], in the test with NB4 cells [1], the “NB4 cell maturation in presence of 8CPT-cAMP” value is given as “No crosstalk”.

Regarding `CC1=C(/C=C/C(C)=C/C=C/C(C)=C/C(=O)O)C(C)(C)CCC1` [ATRA, all-trans retinoic acid], the “IP 10, MCP1 or M-CSF expression in resistant cells” value in the test on NB4-R2 cells is recorded as “unable to induce”. Further, in the test on NB4 cells [2] (agent alone), the “IL8 and MCPI expression” value is listed as “induced”; the “M-CSF and IP10 expression” value was “induced”. Also, the G-CSF expression entry in the test on NB4 cells [2] was “incapable of stimulating G-CSF expression”. The “Induction of NB4 cell maturation/differentiation, agent alone” value in the test with NB4 cells [1] is “induce maturation”.
